This note sets out measurements from ChEMBL document CHEMBL4422633, “Antioxidant-Inspired Drug Discovery: Antitumor Metabolite Is Formed in Situ from a Hydroxycinnamic Acid Derivative upon Free-Radical Scavenging” (J Med Chem, 2019).

One may read the IC50 as the midpoint of a concentration-inhibition curve.

One data set deals with A549. Put plainly: Cytotoxicity against human A549 cells assessed as reduction in cell viability after 72 hrs by MTT assay. The data set is classed as functional, cell-based. As to conditions: A549, 72 h. On the technique in general: Tetrazolium dyes change colour on reduction, which living cells bring about.
The test system of data set [1] is NCI-H661. Put plainly: Induction of apoptosis in human NCI-H661 cells assessed as early apoptotic cells at 10 uM after 24 hrs by Annexin V/propidium iodide-staining based flow cytometry (reference value: 0.31 +/- 0.01%). In kind it is functional. For orientation: In flow cytometry, cells or beads pass a laser one at a time.
Data set [2] is described as follows: Induction of apoptosis in human NCI-H460/R cells transfected with MDR assessed as viable cells at 10 uM after 24 hrs by Annexin V/propidium iodide-staining based flow cytometry (reference value: 95.76 +/- 2.87%). The data set is classed as functional. As to conditions: NCI-H460, 24 h, read-out: Activity.
Data set [3] has as its target T1, Serine/threonine-protein kinase Chk1 (Homo sapiens) (UniProt O14757).
T1 sequence (whole entry): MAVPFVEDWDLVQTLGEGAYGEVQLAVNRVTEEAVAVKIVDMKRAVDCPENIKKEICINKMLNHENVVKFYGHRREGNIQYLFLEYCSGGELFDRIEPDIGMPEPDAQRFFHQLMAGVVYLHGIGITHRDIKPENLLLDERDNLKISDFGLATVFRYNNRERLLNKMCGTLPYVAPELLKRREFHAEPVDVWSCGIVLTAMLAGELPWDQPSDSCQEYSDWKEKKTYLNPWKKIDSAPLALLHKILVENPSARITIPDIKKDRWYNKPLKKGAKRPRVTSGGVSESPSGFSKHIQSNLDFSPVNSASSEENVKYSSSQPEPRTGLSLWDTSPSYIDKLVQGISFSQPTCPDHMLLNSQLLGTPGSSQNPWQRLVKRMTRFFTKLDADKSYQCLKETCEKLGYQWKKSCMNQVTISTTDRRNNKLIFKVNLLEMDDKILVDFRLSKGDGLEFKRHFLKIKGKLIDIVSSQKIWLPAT
Put plainly: Inhibition of CHK1 phosphorylation at S345 in human MCF7 cells at 10 uM pretreated for 30 mins followed by 10 J/m'2 irradiation and measured after 1 hr by Western blot analysis. In kind it is cell-based. Background: A western blot detects proteins with antibodies after separation by electrophoresis.

For a further data set, the species on record is Homo sapiens. The data set is described as follows: Induction of ROS generation in human NCI-H460/R cells transfected with MDR assessed as increase DHE positive cells at 10 uM after 24 hrs by DHE-staining based flow cytometry. In kind it is functional, cell-based.
The subject of data set [4] is NCI-H661. Put plainly: Induction of apoptosis in human NCI-H661 cells assessed as necrotic cells at 10 uM after 24 hrs by Annexin V/propidium iodide-staining based flow cytometry (reference value: 2.58 +/- 0.05%). In kind it is functional.
A short description of data set [5]: Cytotoxicity against human NCI-H460/R cells transfected with MDR assessed as reduction in cell viability after 72 hrs by MTT assay. In kind it is functional, cell-based. The following applies: NCI-H460, 72 h.
The subject of the next data set is SiHa. The data set is described as follows: Cytotoxicity against human SiHa cells assessed as reduction in cell viability after 72 hrs by MTT assay. The data set is classed as functional, cell-based.
The test system of a further data set is NCI-H460. The data set is described as follows: Induction of apoptosis in human NCI-H460 cells assessed as late apoptotic cells at 10 uM after 24 hrs by Annexin V/propidium iodide-staining based flow cytometry (reference value: 0.93 +/- 0.04%). The data set is classed as functional.
Data set [6] relates to NCI-H661. The data set is described as follows: Induction of apoptosis in human NCI-H661 cells assessed as late apoptotic cells at 10 uM after 24 hrs by Annexin V/propidium iodide-staining based flow cytometry (reference value: 0.95 +/- 0.03%). The data set is classed as functional.
Data set [7] is described as follows: Induction of apoptosis in human NCI-H460/R cells transfected with MDR assessed as necrotic cells at 10 uM after 24 hrs by Annexin V/propidium iodide-staining based flow cytometry (reference value: 3.17 +/- 0.13%). In kind it is functional.
A short description of data set [8]: Induction of apoptosis in human HaCaT cells assessed as viable cells at 10 uM after 24 hrs by Annexin V/propidium iodide-staining based flow cytometry (reference value: 95.63 +/- 3.83%). In kind it is cell-based. The following applies: read-out: Activity.
For the next data set, the system named is MCF7. The data set is described as follows: Cytotoxicity against human MCF7 cells assessed as reduction in cell viability after 72 hrs by MTT assay. The data set is classed as functional, cell-based. The following applies: MCF7, 72 h.
The target in data set [9] is Serine/threonine-protein kinase Chk2 (Homo sapiens) (UniProt O96017). Put plainly: Induction of CHK2 phosphorylation at T68 in human MCF7 cells at 10 uM pretreated for 30 mins followed by 10 J/m'2 irradiation and measured after 1 hr by Western blot analysis. In kind it is cell-based.
Sequence of Serine/threonine-protein kinase Chk2 (Homo sapiens) (O96017 whole entry): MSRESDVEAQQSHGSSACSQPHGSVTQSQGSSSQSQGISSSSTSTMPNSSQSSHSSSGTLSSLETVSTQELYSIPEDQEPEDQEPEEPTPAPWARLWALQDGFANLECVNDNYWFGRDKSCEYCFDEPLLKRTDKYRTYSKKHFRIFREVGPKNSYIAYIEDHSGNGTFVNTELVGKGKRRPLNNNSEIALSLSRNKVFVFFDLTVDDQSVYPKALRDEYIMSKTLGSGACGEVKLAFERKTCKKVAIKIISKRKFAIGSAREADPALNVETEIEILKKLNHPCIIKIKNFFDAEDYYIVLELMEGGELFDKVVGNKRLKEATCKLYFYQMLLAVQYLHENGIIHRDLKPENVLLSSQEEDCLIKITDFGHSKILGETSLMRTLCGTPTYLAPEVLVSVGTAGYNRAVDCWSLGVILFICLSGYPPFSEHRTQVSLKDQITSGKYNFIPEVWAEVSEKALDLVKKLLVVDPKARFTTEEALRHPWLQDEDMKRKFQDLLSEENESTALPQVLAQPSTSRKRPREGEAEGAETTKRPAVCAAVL
The subject of a further data set is HeLa. The data set is described as follows: Cytotoxicity against human HeLa cells assessed as reduction in cell viability after 72 hrs by MTT assay. The data set is classed as functional, cell-based.

Calls of active or inactive are those of the source. The rule behind the calls is not given here.

As for `COC(=O)/C=C/C1(O)C=CC(=O)C=C1`, the half-inhibitory concentration (IC50) with A549 came out at 4.32 µM; in data set [5] it was 2.06 µM; in the data set on SiHa, 8.89 µM; with MCF7, 6.22 µM; in the data set with HeLa, 9.85 µM. In addition, the Activity in the data set with NCI-H661 [1] worked out at 0.18%; with NCI-H661 [4], 44.82%; in the data set with NCI-H460, 3.35%; in the data set on NCI-H661 [6], 9.57%; in data set [7] it was 7.51%. Moreover, in [2], the viability at 10 µM worked out at 90%. The inhibition entry in [3] was “Active”. Further, in the data set filed under Homo sapiens, the result was inactive. Also, in data set [8], the viability at 24 h, 10 µM was found to be 91.5%. In data set [9], the result was Active.
